Experimental data reported in ChEMBL document CHEMBL4014331, “Design and Synthesis of Soluble and Cell-Permeable PI3Kδ Inhibitors for Long-Acting Inhaled Administration” (J Med Chem, 2017).
Converted amounts (≈) assume the structure as drawn.

Experiments:
[1] = molecular target: PI3-kinase p110-delta/p85-alpha (Homo sapiens, UniProt O00329); test: Inhibition of recombinant human His6-tagged PI3K p110delta/p85alpha using DiC8-PIP2 as substrate preincubated for 15 mins followed by substrate addition measured after 60 mins by ADP-Glo assay; type: protein-complex assay
[2] = molecular target: PI3-kinase p110-alpha/p85-alpha (Homo sapiens, UniProt P42336); test: Inhibition of recombinant human His6-tagged PI3K p110alpha/p85alpha using DiC8-PIP2 as substrate preincubated for 15 mins followed by substrate addition measured after 60 mins by ADP-Glo assay; type: protein-complex assay
PI3K p110 beta/p85 alpha = PI3K p110 beta/p85 alpha (Homo sapiens, UniProt P42338); test: Inhibition of recombinant human His6-tagged PI3K p110beta/p85alpha using DiC8-PIP2 as substrate preincubated for 15 mins followed by substrate addition measured after 60 mins by ADP-Glo assay; type: protein-complex assay
[3] = molecular target: Phosphatidylinositol 4,5-bisphosphate 3-kinase catalytic subunit gamma isoform (Homo sapiens, UniProt P48736); test: Inhibition of recombinant human His6-tagged PI3Kgamma (144 to 1102 residues) using DiC8-PIP2 as substrate preincubated for 15 mins followed by substrate addition measured after 60 mins by ADP-Glo assay
[4] = molecular target: T1, Phosphatidylinositol 4,5-bisphosphate 3-kinase catalytic subunit delta isoform (Homo sapiens, UniProt O00329); test: Inhibition of PI3Kdelta in human JeKo1 cells assessed as reduction in Akt phosphorylation at Ser473 residue preincubated for 60 mins followed by Anti-IgM stimulation for 10 mins by TR-FRET assay; type: cell-based
T1 sequence (O00329 whole entry): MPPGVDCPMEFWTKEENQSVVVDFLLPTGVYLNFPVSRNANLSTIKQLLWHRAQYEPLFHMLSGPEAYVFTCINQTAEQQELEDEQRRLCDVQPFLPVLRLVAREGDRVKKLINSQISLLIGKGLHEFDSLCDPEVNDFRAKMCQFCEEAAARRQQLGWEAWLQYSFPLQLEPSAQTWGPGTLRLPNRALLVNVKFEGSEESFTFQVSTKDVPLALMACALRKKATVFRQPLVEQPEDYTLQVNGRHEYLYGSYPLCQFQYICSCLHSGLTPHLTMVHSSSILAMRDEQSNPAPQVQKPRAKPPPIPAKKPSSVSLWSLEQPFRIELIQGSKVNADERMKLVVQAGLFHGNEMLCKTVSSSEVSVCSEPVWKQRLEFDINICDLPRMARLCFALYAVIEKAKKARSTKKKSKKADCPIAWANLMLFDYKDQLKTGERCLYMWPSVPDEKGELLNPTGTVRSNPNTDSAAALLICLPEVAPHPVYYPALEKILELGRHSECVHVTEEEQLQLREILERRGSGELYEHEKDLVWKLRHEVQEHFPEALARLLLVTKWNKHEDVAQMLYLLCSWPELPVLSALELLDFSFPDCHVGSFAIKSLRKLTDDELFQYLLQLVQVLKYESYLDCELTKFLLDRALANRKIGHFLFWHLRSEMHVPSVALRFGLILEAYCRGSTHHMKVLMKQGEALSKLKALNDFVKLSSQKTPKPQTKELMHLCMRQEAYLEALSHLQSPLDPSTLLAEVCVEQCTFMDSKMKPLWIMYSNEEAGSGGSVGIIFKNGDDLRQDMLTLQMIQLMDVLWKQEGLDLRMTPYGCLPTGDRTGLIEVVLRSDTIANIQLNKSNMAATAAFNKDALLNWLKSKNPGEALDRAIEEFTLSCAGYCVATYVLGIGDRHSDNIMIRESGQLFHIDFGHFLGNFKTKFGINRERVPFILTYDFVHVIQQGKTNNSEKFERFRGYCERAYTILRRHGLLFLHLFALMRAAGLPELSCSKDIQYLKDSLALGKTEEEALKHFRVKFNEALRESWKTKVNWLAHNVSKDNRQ

[5] = Lipophilicity, log D of the compound; type: physicochemical; details: octanol/water
[6] = Terminal half life in it dosed rat lung by LC-MS/MS analysis; type: ADME, organism-based; details: inhaled or intranasal, read-out: beta t1/2 (converted)
[7] = Metabolic stability in it dosed rat lungs assessed as compound remaining at 24 hrs post dose by LC-MS/MS analysis; type: ADME, organism-based; details: lung, inhaled or intranasal, read-out: Stability
[8] = Dissociation constant, acidic pKa of compound; type: physicochemical
[9] = Dissociation constant, basic pKa of compound; type: physicochemical
[10] = Solubility of the compound; type: physicochemical
[11] = Metabolic stability in it dosed rat lungs assessed as compound remaining at 4 hrs post dose by LC-MS/MS analysis; type: ADME, organism-based; details: lung, inhaled or intranasal, read-out: Stability

Chain of Phosphatidylinositol 4,5-bisphosphate 3-kinase catalytic subunit gamma isoform (P48736 whole entry, the tested form may be a part, canonical isoform): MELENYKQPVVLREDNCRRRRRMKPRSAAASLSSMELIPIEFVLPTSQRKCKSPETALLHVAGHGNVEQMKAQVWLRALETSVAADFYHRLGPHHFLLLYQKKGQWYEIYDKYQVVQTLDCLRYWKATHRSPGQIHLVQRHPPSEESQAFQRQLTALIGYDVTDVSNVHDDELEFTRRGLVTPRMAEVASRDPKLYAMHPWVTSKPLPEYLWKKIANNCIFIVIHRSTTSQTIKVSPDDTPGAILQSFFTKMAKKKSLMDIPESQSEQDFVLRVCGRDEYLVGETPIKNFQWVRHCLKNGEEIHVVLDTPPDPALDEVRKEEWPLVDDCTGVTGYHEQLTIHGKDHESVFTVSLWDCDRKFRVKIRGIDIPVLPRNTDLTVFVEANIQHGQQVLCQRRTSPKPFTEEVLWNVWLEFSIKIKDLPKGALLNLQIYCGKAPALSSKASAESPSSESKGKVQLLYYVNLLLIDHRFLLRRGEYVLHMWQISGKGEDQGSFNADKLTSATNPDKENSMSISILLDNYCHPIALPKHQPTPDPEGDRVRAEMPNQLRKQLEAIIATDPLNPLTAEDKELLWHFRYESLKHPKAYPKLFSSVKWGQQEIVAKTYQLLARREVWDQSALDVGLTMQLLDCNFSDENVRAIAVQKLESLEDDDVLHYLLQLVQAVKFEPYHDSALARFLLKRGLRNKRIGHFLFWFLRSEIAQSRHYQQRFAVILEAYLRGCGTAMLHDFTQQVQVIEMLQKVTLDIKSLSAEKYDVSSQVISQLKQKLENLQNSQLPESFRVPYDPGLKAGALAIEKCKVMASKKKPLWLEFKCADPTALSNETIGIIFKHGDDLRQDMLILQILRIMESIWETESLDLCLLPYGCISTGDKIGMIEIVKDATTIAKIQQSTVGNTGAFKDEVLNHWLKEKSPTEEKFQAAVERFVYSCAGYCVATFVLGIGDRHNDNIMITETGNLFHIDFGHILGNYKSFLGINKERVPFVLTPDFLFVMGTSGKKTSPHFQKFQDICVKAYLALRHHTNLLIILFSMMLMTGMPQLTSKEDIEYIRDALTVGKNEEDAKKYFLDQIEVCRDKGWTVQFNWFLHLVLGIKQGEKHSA
Chain of PI3K p110 beta/p85 alpha (P27986 whole entry, the tested form may be a part, canonical isoform): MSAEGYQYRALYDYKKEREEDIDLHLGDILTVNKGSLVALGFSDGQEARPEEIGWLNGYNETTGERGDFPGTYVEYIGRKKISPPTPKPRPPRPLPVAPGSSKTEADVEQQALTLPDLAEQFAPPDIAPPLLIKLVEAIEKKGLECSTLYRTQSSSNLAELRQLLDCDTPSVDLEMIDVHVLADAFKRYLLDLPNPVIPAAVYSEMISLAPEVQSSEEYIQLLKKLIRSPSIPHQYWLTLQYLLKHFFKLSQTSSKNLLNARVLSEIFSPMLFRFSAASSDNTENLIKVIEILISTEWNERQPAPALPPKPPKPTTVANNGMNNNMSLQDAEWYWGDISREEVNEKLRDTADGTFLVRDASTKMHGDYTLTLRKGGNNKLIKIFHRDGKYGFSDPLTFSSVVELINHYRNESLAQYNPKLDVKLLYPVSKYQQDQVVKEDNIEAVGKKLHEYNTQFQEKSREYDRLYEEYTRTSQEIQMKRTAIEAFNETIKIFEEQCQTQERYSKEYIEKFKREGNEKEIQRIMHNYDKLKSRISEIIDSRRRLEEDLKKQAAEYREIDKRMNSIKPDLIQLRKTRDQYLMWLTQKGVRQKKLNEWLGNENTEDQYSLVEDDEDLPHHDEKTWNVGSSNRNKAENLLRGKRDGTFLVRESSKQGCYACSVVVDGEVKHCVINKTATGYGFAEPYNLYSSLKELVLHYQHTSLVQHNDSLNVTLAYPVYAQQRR
Chain of PI3K p110 beta/p85 alpha (P42338 whole entry, the tested form may be a part, canonical isoform): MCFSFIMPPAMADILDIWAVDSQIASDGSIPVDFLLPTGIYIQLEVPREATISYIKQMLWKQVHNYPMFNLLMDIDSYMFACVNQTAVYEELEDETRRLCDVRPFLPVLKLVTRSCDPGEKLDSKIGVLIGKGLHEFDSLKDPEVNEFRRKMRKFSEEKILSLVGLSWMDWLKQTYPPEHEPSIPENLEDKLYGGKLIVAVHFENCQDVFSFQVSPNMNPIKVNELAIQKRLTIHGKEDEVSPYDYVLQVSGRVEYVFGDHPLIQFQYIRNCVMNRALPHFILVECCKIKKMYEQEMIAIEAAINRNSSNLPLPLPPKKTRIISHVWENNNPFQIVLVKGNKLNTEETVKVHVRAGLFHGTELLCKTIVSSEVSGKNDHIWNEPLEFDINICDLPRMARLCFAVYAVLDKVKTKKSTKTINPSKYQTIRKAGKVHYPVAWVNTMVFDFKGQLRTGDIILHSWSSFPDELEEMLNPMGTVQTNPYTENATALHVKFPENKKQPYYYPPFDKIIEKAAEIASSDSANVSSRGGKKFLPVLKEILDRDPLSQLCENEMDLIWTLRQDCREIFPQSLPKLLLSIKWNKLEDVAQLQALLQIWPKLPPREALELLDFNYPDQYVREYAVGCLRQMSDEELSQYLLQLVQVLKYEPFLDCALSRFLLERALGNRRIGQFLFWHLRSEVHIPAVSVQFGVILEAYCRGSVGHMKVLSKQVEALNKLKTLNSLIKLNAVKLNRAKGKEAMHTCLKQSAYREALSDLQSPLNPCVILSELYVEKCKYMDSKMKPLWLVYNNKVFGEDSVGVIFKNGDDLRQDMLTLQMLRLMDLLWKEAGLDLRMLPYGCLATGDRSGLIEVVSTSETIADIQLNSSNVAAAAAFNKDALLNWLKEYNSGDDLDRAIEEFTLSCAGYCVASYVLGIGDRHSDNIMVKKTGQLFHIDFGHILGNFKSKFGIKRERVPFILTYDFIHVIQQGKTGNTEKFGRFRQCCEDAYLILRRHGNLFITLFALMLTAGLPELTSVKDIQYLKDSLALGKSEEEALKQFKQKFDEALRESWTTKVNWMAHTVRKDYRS
Chain of PI3-kinase p110-alpha/p85-alpha (P27986 whole entry): as the sequence (P27986 whole entry, the tested form may be a part, canonical isoform) above
Chain of PI3-kinase p110-alpha/p85-alpha (P42336 whole entry): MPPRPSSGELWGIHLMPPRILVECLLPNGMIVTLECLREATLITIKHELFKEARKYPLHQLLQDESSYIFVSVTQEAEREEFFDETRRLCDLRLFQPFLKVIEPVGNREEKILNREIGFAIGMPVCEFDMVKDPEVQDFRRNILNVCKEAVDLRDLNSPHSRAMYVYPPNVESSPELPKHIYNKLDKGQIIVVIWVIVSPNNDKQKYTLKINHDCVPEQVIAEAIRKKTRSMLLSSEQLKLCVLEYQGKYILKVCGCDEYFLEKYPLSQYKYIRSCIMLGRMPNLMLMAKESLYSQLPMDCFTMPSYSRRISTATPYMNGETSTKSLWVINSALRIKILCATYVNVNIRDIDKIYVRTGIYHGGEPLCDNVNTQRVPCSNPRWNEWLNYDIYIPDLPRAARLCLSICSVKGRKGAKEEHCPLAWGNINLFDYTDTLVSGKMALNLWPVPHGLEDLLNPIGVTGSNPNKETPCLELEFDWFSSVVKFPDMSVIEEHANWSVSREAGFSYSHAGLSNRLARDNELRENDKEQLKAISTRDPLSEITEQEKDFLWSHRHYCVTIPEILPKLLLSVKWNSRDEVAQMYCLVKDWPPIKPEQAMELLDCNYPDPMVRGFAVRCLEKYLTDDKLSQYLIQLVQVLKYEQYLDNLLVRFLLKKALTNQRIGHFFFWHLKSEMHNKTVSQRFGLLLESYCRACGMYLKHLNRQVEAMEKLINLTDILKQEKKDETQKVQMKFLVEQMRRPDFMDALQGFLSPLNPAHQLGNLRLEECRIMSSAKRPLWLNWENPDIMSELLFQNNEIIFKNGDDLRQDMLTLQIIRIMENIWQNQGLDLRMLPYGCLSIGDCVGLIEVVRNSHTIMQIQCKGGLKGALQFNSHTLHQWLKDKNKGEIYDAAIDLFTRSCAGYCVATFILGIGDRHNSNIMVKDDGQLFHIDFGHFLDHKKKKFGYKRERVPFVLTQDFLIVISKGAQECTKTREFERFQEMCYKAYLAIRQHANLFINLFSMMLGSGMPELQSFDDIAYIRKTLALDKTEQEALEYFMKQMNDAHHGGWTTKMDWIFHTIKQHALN
Chain of PI3-kinase p110-delta/p85-alpha (P27986 whole entry, one chain of several): as the sequence (P27986 whole entry, the tested form may be a part, canonical isoform) above

SMILES	IC50 [1]	IC50 [2]	IC50 (PI3K p110 beta/p85 alpha)	IC50 [3]	IC50 [4]	logD [5]	half-life [6]	remaining at 24 h [7]	pKa [8]	pKa [9]	solubility [10]	remaining at 4 h [11]
Cc1csc2cc([C@H](C)Nc3ncnc(N)c3C#N)c(-c3cccc(CNCCN4CCOCC4)c3)c(=O)n12	0.631 nM	≥ 631 nM	20 nM	≥ 200 nM	12.6 nM	0.6	4.2 h	0.1%	9.6	4.7	–	–
Cc1csc2cc([C@H](C)Nc3ncnc(N)c3C#N)c(-c3cccc(CCN(C)C)c3)c(=O)n12	0.794 nM	1260 nM	50.1 nM	> 1000 nM	2.51 nM	0.5	–	–	–	–	–	–
Cc1csc2cc([C@H](C)Nc3ncnc(N)c3C#N)c(-c3cccc(CN4CCC(CN(C)CC(C)C)CC4)c3)c(=O)n12	0.631 nM	≥ 631 nM	50.1 nM	≥ 200 nM	2.51 nM	2.1	12 h	3.3%	9.8	8	–	–
Cc1csc2cc([C@H](C)Nc3ncnc(N)c3C#N)c(-c3cccc(CN4CCC4)c3)c(=O)n12	0.501 nM	1580 nM	39.8 nM	501 nM	2.51 nM	0.5	1.1 h	0%	–	–	954 µM (≈ 450 µg/mL)	0.5%
CNCc1cccc(-c2c([C@H](C)Nc3ncnc(N)c3C#N)cc3scc(C)n3c2=O)c1	0.794 nM	1260 nM	10 nM	631 nM	20 nM	-0.2	4.9 h	0%	–	–	> 1000 µM	2.5%
Cc1csc2cc([C@H](C)Nc3ncnc(N)c3C#N)c(-c3cccc(CN(C)CCCCN(C)Cc4ccccc4)c3)c(=O)n12	0.501 nM	≥ 631 nM	15.8 nM	≥ 200 nM	2 nM	2.2	17.6 h	7.4%	9.1	7	–	–
Cc1csc2cc([C@H](C)Nc3ncnc(N)c3C#N)c(-c3cccc(CN(C)CCCCN4C[C@@H](C)O[C@@H](C)C4)c3)c(=O)n12	1.26 nM	≥ 631 nM	79.4 nM	≥ 200 nM	6.31 nM	1.5	7.6 h	3.9%	8.9	6.3	–	–
Cc1csc2cc([C@H](C)Nc3ncnc(N)c3C#N)c(-c3cccc(CN)c3)c(=O)n12	0.631 nM	1260 nM	7.94 nM	200 nM	39.8 nM	-0.3	1.6 h	0%	–	–	> 1000 µM	2%
Cc1csc2cc([C@H](C)Nc3ncnc(N)c3C#N)c(-c3cccc(CNCCCCOCCc4ccccc4)c3)c(=O)n12	0.398 nM	501 nM	7.94 nM	316 nM	1.26 nM	2.3	3.5 h	0%	–	–	699 µM (≈ 425 µg/mL)	4.8%
Cc1csc2cc([C@H](C)Nc3ncnc(N)c3C#N)c(-c3cccc(CN(C)CCCN(C)Cc4ccc(Cl)cc4)c3)c(=O)n12	0.631 nM	≥ 631 nM	12.6 nM	≥ 200 nM	3.16 nM	3.2	13 h	3.3%	8.8	7.5	–	–
Cc1csc2cc([C@H](C)Nc3ncnc(N)c3C#N)c(-c3cccc(OCCN(C)C)c3)c(=O)n12	1.58 nM	7940 nM	200 nM	316 nM	6.31 nM	0.7	–	–	–	–	–	–
Cc1csc2cc([C@H](C)Nc3ncnc(N)c3C#N)c(-c3cccc(CN(C)C)c3)c(=O)n12	0.794 nM	3160 nM	63.1 nM	631 nM	1.58 nM	0.8	2.3 h	0%	–	–	956 µM (≈ 439 µg/mL)	0.2%
Cc1csc2cc([C@H](C)Nc3ncnc(N)c3C#N)c(-c3cccc(CN4CCC(CN(C)Cc5ccccn5)CC4)c3)c(=O)n12	0.794 nM	≥ 631 nM	63.1 nM	≥ 200 nM	2 nM	2	10.9 h	5.2%	9	7	–	–
CCN(CCN1CCOCC1)Cc1cccc(-c2c([C@H](C)Nc3ncnc(N)c3C#N)cc3scc(C)n3c2=O)c1	0.794 nM	≥ 631 nM	251 nM	≥ 200 nM	1.26 nM	1.4	–	0%	8	4	–	–
Cc1csc2cc([C@H](C)Nc3ncnc(N)c3C#N)c(-c3cccc(CC4CCN(C(C)C)CC4)c3)c(=O)n12	0.631 nM	1000 nM	398 nM	251 nM	1.58 nM	1.1	–	–	–	–	–	–
Cc1csc2cc([C@H](C)Nc3ncnc(N)c3C#N)c(-c3cccc(CN(C)CCCN4C[C@@H](C)O[C@@H](C)C4)c3)c(=O)n12	1.26 nM	≥ 631 nM	126 nM	≥ 200 nM	5.01 nM	1.5	5.9 h	0.8%	8.5	5.7	–	–
